From patent publication US20240287108A1, “nSMASE2 INHIBITOR PRODRUGS WITH ENHANCED ORAL AND BRAIN EXPOSURES” (The Johns Hopkins University, priority 2021, published 2024)
Entries after “also recorded” stand apart in the source; their conditions may differ.

Key:
[1] = tested on: IL-1β-induced release of GFP+ EVs into plasma; experiment: EV release in vivo, IL-1β mouse model of acute brain injury; conditions: P18 3 and 10 mg/kg DPTIP equivalent PO 30 min before intrastriatal IL-1β; 4 h
Excerpt: We have previously reported that nSMase2 regulates the secretion of extracellular vesicles from astrocytes in response to a focal inflammatory brain lesion. Rojas et al., 2018. Striatal injection of IL-1β in mice expressing GFAP-EGFP in astroglia evokes the release of GFP-labelled EVs that rapidly enter into plasma and target multiple organ systems. Dickens et al., 2017. We used this mouse model to evaluate the ability of P18 to inhibit EV release by the inhibition of nSMase2 activity in vivo. […] Interleukin-1β-injected mice, orally pre-dosed with P18 (30 min prior) were euthanized 4-hours post-IL-1β injection. GFP labeled (GFP+) EVs were quantified in plasma and nSMase2 activity was measured in the brain striata.
Striatal injections and EV measurements were performed as previously described by our group. Dickens et al., 2017; Mccluskey et al., 2008. […] Mice subjected to intrastriatal injection of IL-1β were also injected with the NSAID carprofen (rimadyl, 5 mg/kg. i.p.) and closely monitored during recovery; no adverse reactions were observed. […] Quantitation of Plasma EVs: Dynabeads M-450) Epoxy (Invitrogen) were coupled with anti-GFP antibody (Thermo Fisher) at a ratio of 200-μg antibody per 4×10^8 beads. […] The concentration of immunoprecipitated GFP+ EVs was quantified using ZetaView nanoparticle tracking analysis (Particle Metrix) and corresponding ZetaView software (8.05.14.SP7). […]

[2] = time-dependent oral pharmacokinetics in mice; type: in vivo, mouse
Experimental: As described earlier, we identified P1 and P18 as the most promising candidates for time dependent PK.
All PK studies in mice were conducted according to protocols approved by the Animal Care and Use Committee at Johns Hopkins University. Male CD-1 mice between 25 and 30 g were obtained from Harlan and maintained on a 12 h light-dark cycle with ad libitum access to food and water. […] All of the formulations were freshly prepared prior to the dosing. The mice were sacrificed at specified time points (either 2 h or 0.25, 0.5, 1, 2, 4, 6, and 8 h) post drug administration. For the collection of plasma and brain tissue, animals were euthanized with CO2, and blood samples were collected in heparinized microtubes by cardiac puncture. Brains were dissected and immediately flash frozen (−80° C.) Blood samples were spun at 2000 g for 15 min, and plasma was removed and stored at −80° C. until LC-MS/MS analysis. Prior to extraction, frozen samples were thawed on ice.
Brain tissues were diluted 1:5 w/v with acetonitrile containing losartan (0.5 μm) and homogenized, followed by vortex-mixing and centrifugation at 10,000 g for 10 min at 4° C. A 50 μL aliquot of the supernatant were diluted with 50 uL of water and transferred to 250 μL polypropylene autosampler vials sealed with teflon caps. Then, 2 μL of the sample were injected into the LC/MS/MS system for analysis. Chromatographic analysis was performed using an Accela ultra-high-performance system consisting of an analytical pump and an autosampler coupled with a TSQ Vantage mass spectrometer. […] The mobile phase consisted of 0.1% formic acid in acetonitrile and 0.1% formic acid in water with gradient elution were used. […] Plasma concentrations (nmol/ml) as well as brain tissue concentrations (nmol/g) were determined and plots of mean plasma concentration versus time were constructed. Non-compartmental analysis modules in Phoenix WinNonlin version 7.0 (Certara USA, Inc., Princeton, NJ) were used to quantify exposures (AUC0-t).

## CCC1CC(N2CCCCC2)CC(CC)N1C(=O)Oc1c(OC)cc(-c2nc(-c3ccccc3)c(-c3cccs3)[nH]2)cc1OC (stereo not drawn) [Compound P18, 2,6-Dimethoxy-4-(5-phenyl-4-(thiophen-2-yl)-1H-imidazol-2-yl)phenyl 2′,6′-diethyl-[1,4′-bipiperidine]-1′-carboxylate]
[1]
  IL-1β-induced release of GFP+ EVs into plasma: significantly inhibited IL-1β-induced EV release into plasma; also recorded: inhibited the release of brain derived GFP+ EVs into blood at both 3 and 10 mg/kg; also recorded: significant inhibition
[2]; oral 10 mg/kg DPTIP equivalent
  plasma exposure of the intact compound (AUC0-t): 0.969 µM·h
[2]; oral 10 mg/kg DPTIP equivalent (P18: in the brain)
  conversion of prodrug to DPTIP in vivo: > 50%
